Experimental data published in patent US20200147243A1, “LIGAND COMPOUND OF ALPHA7 NICOTINIC ACETYLCHOLINE RECEPTOR AND APPLICATION THEREOF” (BEIJING NORMAL UNIVERSITY, priority 2017, published 2020).
Like-named read-outs stand apart in the source and are kept apart here. Blank lines part the entries; values can stand above or below the compound they belong to.

Assays:
hERG potassium channel [1] = biological target: T1, hERG potassium channel (Homo sapiens, UniProt Q12809); experiment: in vitro
α7 nAChRs = α7 nAChRs (Rattus norvegicus, UniProt Q05941); experiment: In vitro competitive binding experiment with [125I] α-bgt as radioactive standard; parameters: species or system SD rats; conditions: 0.4 nM [125I] α-bgt, Cheng-Prusoff, mean of three measurements ± SD; read-out: Ki (nM), in vitro binding affinity to α7 nAChRs
Chain of α7 nAChRs (Q05941 23-502): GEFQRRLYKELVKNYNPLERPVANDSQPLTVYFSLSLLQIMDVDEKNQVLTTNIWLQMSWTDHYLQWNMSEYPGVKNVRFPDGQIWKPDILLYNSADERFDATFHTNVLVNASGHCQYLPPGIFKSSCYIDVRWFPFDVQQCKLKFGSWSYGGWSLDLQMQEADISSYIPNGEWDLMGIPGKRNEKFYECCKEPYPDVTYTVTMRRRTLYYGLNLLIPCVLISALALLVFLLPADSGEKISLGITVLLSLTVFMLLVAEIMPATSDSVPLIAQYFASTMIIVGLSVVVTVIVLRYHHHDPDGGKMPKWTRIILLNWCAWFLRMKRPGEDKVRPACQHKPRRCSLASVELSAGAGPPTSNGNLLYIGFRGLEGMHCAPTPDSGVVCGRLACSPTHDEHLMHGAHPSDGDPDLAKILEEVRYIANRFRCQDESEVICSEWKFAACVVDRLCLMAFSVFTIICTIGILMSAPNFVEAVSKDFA

hERG potassium channel [2] = biological target: T1, hERG potassium channel; experiment: In vitro hERG potassium channel inhibition experiment (conventional patch clamp, HEK293 cell line stably expressing hERG)
hERG potassium channel [3] = biological target: T1, hERG potassium channel
[4] = Measurement of half lethal dosage LD50 (tail vein injection); format: in vivo, Kunming mice; conditions: both sexes, Kunming, mouse, in vivo, intravenous, mice, tail vein injection
Text: (§1) There are many methods for calculating LD50, among which the weighted probit method created by Bliss and then developed by later researchers was the most accurate and rigorous, and was the standard LD50 calculation method recognized by researchers. This calculation method will be used herein to solve the LD50 value of the compound to be measured to the mice.

Kunming mice = experiment: as above; format: in vivo; conditions: for Death Rate (%): tail vein
Text: as §1

[5] = 5 min after administration; cited from earlier work
[6] = 5 min after the administration, cited from earlier work
[7] = IC50 (μM), hERG potassium current, Table 7 and text, n=3
[8] = hERG Potassium Channel IC50 (nM), Table 8

T1 sequence (Q12809 whole entry): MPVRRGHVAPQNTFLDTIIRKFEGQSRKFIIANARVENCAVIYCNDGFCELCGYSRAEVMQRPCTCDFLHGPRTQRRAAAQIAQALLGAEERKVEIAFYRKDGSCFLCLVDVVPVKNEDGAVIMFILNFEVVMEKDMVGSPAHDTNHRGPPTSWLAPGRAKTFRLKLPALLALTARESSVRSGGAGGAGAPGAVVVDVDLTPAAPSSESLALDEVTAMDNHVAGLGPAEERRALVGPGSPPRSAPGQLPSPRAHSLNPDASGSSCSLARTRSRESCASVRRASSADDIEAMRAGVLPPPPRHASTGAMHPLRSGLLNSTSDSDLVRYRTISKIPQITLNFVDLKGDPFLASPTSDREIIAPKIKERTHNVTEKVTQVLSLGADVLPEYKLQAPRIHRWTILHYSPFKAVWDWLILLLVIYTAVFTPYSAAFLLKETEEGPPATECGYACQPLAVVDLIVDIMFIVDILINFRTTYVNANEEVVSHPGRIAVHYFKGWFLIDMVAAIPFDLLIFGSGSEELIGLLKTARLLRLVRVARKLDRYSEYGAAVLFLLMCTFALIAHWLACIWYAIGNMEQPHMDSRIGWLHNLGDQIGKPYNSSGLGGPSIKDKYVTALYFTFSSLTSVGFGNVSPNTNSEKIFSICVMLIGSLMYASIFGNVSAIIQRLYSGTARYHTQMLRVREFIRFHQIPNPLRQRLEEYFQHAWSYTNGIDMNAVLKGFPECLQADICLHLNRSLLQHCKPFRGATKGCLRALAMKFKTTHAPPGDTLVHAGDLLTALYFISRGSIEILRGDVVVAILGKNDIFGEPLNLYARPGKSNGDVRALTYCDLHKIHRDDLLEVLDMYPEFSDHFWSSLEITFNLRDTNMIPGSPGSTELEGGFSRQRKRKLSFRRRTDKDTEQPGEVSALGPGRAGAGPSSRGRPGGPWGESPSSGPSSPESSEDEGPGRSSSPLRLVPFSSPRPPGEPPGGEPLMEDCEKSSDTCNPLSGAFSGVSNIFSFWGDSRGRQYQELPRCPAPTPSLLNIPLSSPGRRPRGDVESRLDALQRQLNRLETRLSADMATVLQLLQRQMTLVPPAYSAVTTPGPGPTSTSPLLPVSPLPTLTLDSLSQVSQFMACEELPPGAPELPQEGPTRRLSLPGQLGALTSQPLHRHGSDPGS

Compound: COc1cc(N)c(Cl)cc1C(=O)NC1CCN(CCCOc2ccc(F)cc2)CC1OC (stereo not shown) [Cisapride, reference compound]
- inhibition at 5 min, 0.001 µM (hERG potassium channel [1]): 8 ± 2%
- inhibition at 5 min, 0.01 µM (hERG potassium channel [1]): 44 ± 1%
- inhibition at 5 min, 0.1 µM (hERG potassium channel [1]): 84 ± 1%

Compound: Fc1ccc(-c2ccc3oc(N4CCN5CCC4CC5)nc3n2)cn1 [Compound I-10]
- Ki (α7 nAChRs): 378 ± 119 nM

Compound: Nc1ccc2c(c1)C(=O)c1cc(N3CCN4CCC3CC4)ccc1-2 [II-5]
- IC50 (hERG potassium channel [2]; [7]): 2.5 ± 0.15 µM
- IC50 (hERG potassium channel [2]; [8]): 2.5 ± 0.15 µM
- inhibition at 5 min, 0.4 µM (hERG potassium channel [1]): 19 ± 1%
- inhibition at 5 min, 2 µM (hERG potassium channel [1]): 42 ± 1%
- inhibition at 5 min, 10 µM (hERG potassium channel [1]): 79 ± 2%
- inhibition at 5 min, 50 µM (hERG potassium channel [1]): 98%

Compound: O=C1c2cc(F)ccc2-c2ccc(N3CCN4CCC3CC4)cc21 [II-6]
- IC50 (hERG potassium channel [2]; [7]): 0.46 ± 0.055 µM
- IC50 (hERG potassium channel [2]; [8]): 0.46 ± 0.055 µM
- inhibition at 5 min, 0.4 µM (hERG potassium channel [1]): 42 ± 2%
- inhibition at 5 min, 2 µM (hERG potassium channel [1]): 80 ± 1%
- inhibition at 5 min, 10 µM (hERG potassium channel [1]): 96 ± 1%
- inhibition at 5 min, 50 µM (hERG potassium channel [1]): 100%
- IC50(hERG)/IC50(α7 nAChR) (hERG potassium channel [3]): 22

Compound: Nc1cccc2c1C(=O)c1cc(N3CCN4CCC3CC4)ccc1-2 [II-14]
- IC50 (hERG potassium channel [2]; [7]): 49.7 ± 15.9 µM
- IC50 (hERG potassium channel [2]; [8]): 49.7 ± 15.9 µM
- inhibition at 5 min, 0.4 µM (hERG potassium channel [1]): 6 ± 1%
- inhibition at 5 min, 2 µM (hERG potassium channel [1]): 20 ± 2%
- inhibition at 5 min, 10 µM (hERG potassium channel [1]): 25 ± 3%
- inhibition at 5 min, 50 µM (hERG potassium channel [1]): 53 ± 4%

Compound: O=C1c2cc(N3CCN4CCC3CC4)ccc2-c2cccc(F)c21 [II-15]
- LD50 at 14 days ([4]; weighted probit method, read-out: half lethal dosage LD50): 53.7 mg/kg
- LD50 at 14 days ([4]; read-out: 95% confidence limit of LD50): 50.4 to 57.2 mg/kg
- Observation Record (Kunming mice; 43.74 mg/kg): Symptoms of convulsion, and trembling
- Number of Death (Kunming mice; 43.74 mg/kg, 10 mice): 1
- Death Rate (%) (Kunming mice; 43.74 mg/kg, 14 days observation): 10%
- Number of Death (Kunming mice; 48.6 mg/kg, 9 mice): 2
- Death Rate (%) (Kunming mice; 48.6 mg/kg, 14 days observation): 22%
- Observation Record (Kunming mice; 54 mg/kg): Died after convulsion of 20 min; survivors
- Number of Death (Kunming mice; 54 mg/kg, 10 mice): 6
- Death Rate (%) (Kunming mice; 54 mg/kg, 14 days observation): 60%
- Observation Record (Kunming mice; 60 mg/kg): Died after convulsion of 6-10 min; survivors
- Number of Death (Kunming mice; 60 mg/kg, 10 mice): 7
- Death Rate (%) (Kunming mice; 60 mg/kg, 14 days observation): 70%
- Observation Record (Kunming mice; 64.8 mg/kg): Died after convulsion of about 10 s: survivors
- Number of Death (Kunming mice; 64.8 mg/kg, 10 mice): 9
- Death Rate (%) (Kunming mice; 64.8 mg/kg, 14 days observation): 90%
- weights of surviving mice in the observation period (Kunming mice; 14 days observation): increased normally
- inappetence after the administration, then recovered to normal (Kunming mice; all administrated mice): ≤ 1 h
- tissues and organs of dissected dead mice (Kunming mice; all dose groups): no abnormality was found
- IC50 (hERG potassium channel [2]; [7]): 0.46 ± 0.011 µM
- IC50 (hERG potassium channel [2]; [8]): 0.46 ± 0.011 µM
- inhibition at 5 min, 0.4 µM (hERG potassium channel [1]): 45 ± 1%
- inhibition at 5 min, 2 µM (hERG potassium channel [1]): 82 ± 1%
- inhibition at 5 min, 10 µM (hERG potassium channel [1]): 97 ± 1%
- inhibition at 5 min, 50 µM (hERG potassium channel [1]): 98 ± 1%
- IC50(hERG)/IC50(α7 nAChR) (hERG potassium channel [3]): 74

- Ki (α7 nAChRs): 456 ± 152 nM
Compound: CN1CC2CN(c3ccc(-c4ccc5c(ccn5CCF)c4)nc3)CC2C1 (stereo not shown) [III-19]

Compound: CN1CC2CN(c3ccc(-c4ccc(OCCF)cc4)nn3)CC2C1 (stereo not shown) [III-24]
- Ki (α7 nAChRs): 445 ± 31.5 nM

Compound: O=S1(=O)c2cc(N3CCN4CCC3CC4)ccc2-c2cccc([18F])c21 [[^18F] ASEM]
- highest brain uptake value (reported) [5]: 7.5 % ID/g
- uptake value in corpus striatum (reported) ([6]; corpus striatum): 6.0 % ID/g
- uptake value in cortex (reported) ([6]; cortex): 7.2 % ID/g
- uptake value in hippocampus (reported) ([6]; hippocampus): 5.0 % ID/g
